Measured values as given in PMC6100729, “Penicillium citrinum UFV1 β-glucosidases: purification, characterization, and application for biomass saccharification” (Biotechnology for Biofuels, 2018).
Read-outs that look alike come from different tables or passages of the source.

Assays:
Format in all cases: biochemical, Penicillium citrinum
[1] = system: T1, PcβGlu1; assay: glucose release, glucose oxidase method at […] nm; conditions: 50 mM sodium acetate pH 5.0, 40 °C
T1 construct: native secreted enzyme purified from wheat-bran culture supernatant (ammonium sulfate, phenyl sepharose); 134 kDa SDS-PAGE, 258 kDa gel filtration (abstract 241 kDa), homodimer

[2] = system: T2, PcβGlu2; assay: glucose release, glucose oxidase method at […] nm; conditions: 50 mM sodium acetate pH 5.0, 40 °C
T2 construct: 93 kDa SDS-PAGE, 89 kDa gel filtration (abstract 95 kDa), monomer; GH3 only tentative (MS on heterogeneous fraction)

[3] = system: T1, PcβGlu1; assay: 4-methylumbelliferone fluorescence; conditions: 50 mM sodium acetate pH 5.0, 40 °C
Text: 4-methylumbelliferone fluorescence on PcβGlu1

[4] = system: T2, PcβGlu2; assay: 4-methylumbelliferone fluorescence; conditions: 50 mM sodium acetate pH 5.0, 40 °C; substrate-inhibition model
Text: 4-methylumbelliferone fluorescence on PcβGlu2

[5] = molecular target: T2, PcβGlu2; assay: pNPβGlu hydrolysis, p-nitrophenol release at […] nm; conditions: substrate pNPβGlu, 50 mM sodium acetate pH 5.0, 40 °C
[6] = molecular target: T1, PcβGlu1; assay: pNPβGlu hydrolysis, p-nitrophenol release at […] nm; conditions: substrate pNPβGlu, 50 mM sodium acetate pH 5.0, 40 °C
[7] = system: T1, PcβGlu1; assay: p-nitrophenol release at […] nm; conditions: 50 mM sodium acetate pH 5.0, 40 °C
[8] = system: T2, PcβGlu2; assay: p-nitrophenol release at […] nm; conditions: 50 mM sodium acetate pH 5.0, 40 °C; substrate-inhibition model
[9] = mixed-type noncompetitive, free-enzyme constant, read-out: KIE

Row | Km [1] | Km ([2]; substrate-inhibition model) | SMILES | also measured
1 | 250 ± 20 µM | 70 ± 10 µM | OC[C@H]1O[C@@H](O[C@H]2[C@H](O)[C@@H](O)[C@H](O[C@H]3[C@H](O)[C@@H](O)[C@H](O[C@H]4[C@H](O)[C@@H](O)[C@H](O[C@H]5[C@H](O)[C@@H](O)C(O)O[C@@H]5CO)O[C@@H]4CO)O[C@@H]3CO)O[C@@H]2CO)[C@H](O)[C@@H](O)[C@@H]1O (some centres unmarked) [Cellopentaose] | –
2 | 420 ± 50 µM | 280 ± 70 µM | OC[C@H]1O[C@@H](O[C@H]2[C@H](O)[C@@H](O)[C@H](O[C@H]3[C@H](O)[C@@H](O)[C@H](O[C@H]4[C@H](O)[C@@H](O)C(O)O[C@@H]4CO)O[C@@H]3CO)O[C@@H]2CO)[C@H](O)[C@@H](O)[C@@H]1O (some centres unmarked) [Cellotetraose] | –
3 | 380 ± 40 µM | – | OC[C@H]1O[C@@H](OC[C@H]2OC(O)[C@H](O)[C@@H](O)[C@@H]2O)[C@H](O)[C@@H](O)[C@@H]1O (some centres unmarked) [Gentiobiose] | Km ([2]; Michaelis-Menten): 620 ± 70 µM
4 | 330 ± 40 µM | 420 ± 30 µM | OC[C@H]1O[C@@H](O[C@H]2[C@H](O)[C@@H](CO)OC(O)[C@@H]2O)[C@H](O)[C@@H](O)[C@@H]1O (some centres unmarked) [Laminaribiose] | –
5 | – | – | Cc1cc(=O)oc2cc(O[C@@H]3O[C@H](CO)[C@@H](O)[C@H](O)[C@H]3O)ccc12 [MUβGlu] | Km [3]: 240 ± 10 µM; Km [4]: 14 ± 2 µM
6 | 540 ± 30 µM | 190 ± 30 µM | CCCCCCCCO[C@@H]1O[C@H](CO)[C@@H](O)[C@H](O)[C@H]1O [Octyl-β-glucopyranoside] | –
7 | 1700 ± 100 µM | – | OC[C@H]1O[C@@H](O[C@H]2[C@H](O)[C@@H](O)C(O)O[C@@H]2CO)[C@H](O)[C@@H](O)[C@@H]1O (some centres unmarked) [cellobiose] | Ki [5, 9]: 3.74 ± 0.07 mM; Ki [6, 9]: 10.7 ± 0.1 mM; Km ([2]; Michaelis-Menten): 640 ± 60 µM
8 | – | – | OC[C@H]1OC(O)[C@H](O)[C@@H](O)[C@@H]1O (some centres unmarked) [glucose] | Ki ([5]; competitive, read-out: Ki): 0.88 ± 0.08 mM; Ki ([6]; competitive, read-out: Ki): 1.89 ± 0.08 mM
9 | – | – | O=[N+]([O-])c1ccc(O[C@@H]2O[C@H](CO)[C@@H](O)[C@H](O)[C@H]2O)cc1 [pNPβGlu] | Km [7]: 280 ± 10 µM; Km [8]: 72 ± 7 µM
